Assay results reported in patent publication US9376425B2, “Heterocyclic compounds as MDM2 inhibitors for the treatment of cancer” (AMGEN INC., priority 2011, dated 2016).

Each compound was assayed against T1, human MDM2 (GST-hMDM2 1-188), interaction with biotinylated-p53 (1-83) (Homo sapiens, UniProt Q00987) (assay: improved HTRF assay (HTRF2 assay), inhibition of HDM2-p53 interaction). Settings: 0.2 nM GST-hMDM2, 0.5 nM biotinylated-p53, 100 mM KF.
T1 construct: Amino acid residues 1-188 of human MDM2 were expressed; made in house; host or cells: Escherichia coli
T1 sequence (Q00987 1-188): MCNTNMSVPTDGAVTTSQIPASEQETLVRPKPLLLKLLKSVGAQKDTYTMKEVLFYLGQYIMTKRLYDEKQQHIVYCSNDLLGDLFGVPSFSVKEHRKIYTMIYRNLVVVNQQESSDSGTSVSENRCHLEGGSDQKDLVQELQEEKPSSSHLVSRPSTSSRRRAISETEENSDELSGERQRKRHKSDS
Assay type: binding
Method: Residues 1-83 of human p53 were expressed as an amino-terminal AviTag™-TrxA-6xHis fusion protein (biotinylated p53) in E. coli. Each protein was purified from cell paste by affinity chromatography.
Specifically, 10 uL of GST-hMDM2 was incubated with 10 ul of diluted compound (various concentrations, serially diluted) in 10% DMSO for 20 minutes at room temperature. 20 uL of biotinylated-p53 was added to the GST-hMDM2+ compound mixture, and then incubated at room temperature for 60 min. 10 uL of detection buffer consisting of SA-XLent, anti-GST cryptate antibody and KF was added to GST-hMDM2, biotinylated-p53 and compound reaction and left at room temperature to reach equilibrium for >4 hrs. The final concentration of DMSO in the reaction was 2%. Time-resolved fluorescence readings were measured on a microplate multilabel reader. Percentage of inhibition was calculated relative to nutlin-3.

`CC[C@@H](CN(c1ncccc1F)S(=O)(=O)C1CC1)N1C(=O)[C@@H](CC(=O)O)O[C@H](c2cccc(Cl)c2)[C@H]1c1ccc(Cl)cc1` (single isomer, unassigned) [Example 176, 2-((2R,5R,6R)-6-(3-chlorophenyl)-5-(4-chlorophenyl)-4-((S)-1-(N-(3-fluoropyridin-2-yl)cyclopropanesulfonamido)butan-2-yl)-3-oxomorpholin-2-yl)acetic acid or 2-((2S,5R,6R)-6-(3-chlorophenyl)-5-(4-chlorophenyl)-4-((S)-1-(N-(3-fluoropyridin-2-yl)cyclopropanesulfonamido)butan-2-yl)-3-oxomorpholin-2-yl)acetic acid] and `CC[C@@H](CN(c1ccccn1)S(=O)(=O)C1CC1)N1C(=O)[C@H](CC(=O)O)O[C@H](c2cccc(Cl)c2)[C@H]1c1ccc(Cl)cc1` (single isomer, unassigned) [Example 180, 2-((2S,5R,6R)-6-(3-chlorophenyl)-5-(4-chlorophenyl)-3-oxo-4-((S)-1-(N-(pyridin-2-yl)cyclopropanesulfonamido)butan-2-yl)morpholin-2-yl)acetic acid or 2-((2R,5R,6R)-6-(3-chlorophenyl)-5-(4-chlorophenyl)-3-oxo-4-((S)-1-(N-(pyridin-2-yl)cyclopropanesulfonamido)butan-2-yl)morpholin-2-yl)acetic acid] cannot be ordered by IC50: < 1 nM for the first, < 1 nM for the second.

Going from `CC[C@@H](CN(c1ncccc1F)S(=O)(=O)C1CC1)N1C(=O)[C@@H](CC(=O)O)O[C@H](c2cccc(Cl)c2)[C@H]1c1ccc(Cl)cc1` (single isomer, unassigned) [Example 177, 2-((2R,5R,6R)-6-(3-chlorophenyl)-5-(4-chlorophenyl)-4-((S)-1-(N-(3-fluoropyridin-2-yl)cyclopropanesulfonamido)butan-2-yl)-3-oxomorpholin-2-yl)acetic acid or 2-((2S,5R,6R)-6-(3-chlorophenyl)-5-(4-chlorophenyl)-4-((S)-1-(N-(3-fluoropyridin-2-yl)cyclopropanesulfonamido)butan-2-yl)-3-oxomorpholin-2-yl)acetic acid] to `CC[C@@H](CN(c1ccccn1)S(=O)(=O)C1CC1)N1C(=O)[C@H](CC(=O)O)O[C@H](c2cccc(Cl)c2)[C@H]1c1ccc(Cl)cc1` (single isomer, unassigned) [Example 181, 2-((2S,5R,6R)-6-(3-chlorophenyl)-5-(4-chlorophenyl)-3-oxo-4-((S)-1-(N-(pyridin-2-yl)cyclopropanesulfonamido)butan-2-yl)morpholin-2-yl)acetic acid or 2-((2R,5R,6R)-6-(3-chlorophenyl)-5-(4-chlorophenyl)-3-oxo-4-((S)-1-(N-(pyridin-2-yl)cyclopropanesulfonamido)butan-2-yl)morpholin-2-yl)acetic acid], the IC50 rises from < 1 nM to 1 nM. The first is the more potent here.

Compared with `C=CC[C@@H]1O[C@H](c2cccc(Cl)c2)[C@@H](c2ccc(Cl)cc2)N([C@@H](CC)CN(c2ccccn2)S(=O)(=O)C2CC2)C1=O` (single isomer, unassigned) [Example 178, N-((S)-2-((2S,5R,6R)-2-allyl-6-(3-chlorophenyl)-5-(4-chlorophenyl)-3-oxomorpholino)butyl)-N-(pyridin-2-yl)cyclopropanesulfonamide or N-((S)-2-((2R,5R,6R)-2-allyl-6-(3-chlorophenyl)-5-(4-chlorophenyl)-3-oxomorpholino)butyl)-N-(pyridin-2-yl)cyclopropanesulfonamide], `O=C(O)C[C@H]1O[C@H](c2cccc(Cl)c2)[C@@H](c2ccc(Cl)cc2)N([C@H](CN(c2ncccc2F)S(=O)(=O)C2CC2)C2CC2)C1=O` (single isomer, unassigned) [Example 188, 2-((2R,5R,6R)-6-(3-chlorophenyl)-5-(4-chlorophenyl)-4-((S)-1-cyclopropyl-2-(N-(3-fluoropyridin-2-yl)cyclopropanesulfonamido)ethyl)-3-oxomorpholin-2-yl)acetic acid or 2-((2S,5R,6R)-6-(3-chlorophenyl)-5-(4-chlorophenyl)-4-((S)-1-cyclopropyl-2-(N-(3-fluoropyridin-2-yl)cyclopropanesulfonamido)ethyl)-3-oxomorpholin-2-yl)acetic acid] is lower in IC50: 182 nM for the first, < 1 nM for the second. The second is the more potent here.

First: C=CC[C@@H]1O[C@H](c2cccc(Cl)c2)[C@@H](c2ccc(Cl)cc2)N([C@@H](CC)CN(c2ccccn2)S(=O)(=O)C2CC2)C1=O (single isomer, unassigned) [Example 179, N-((S)-2-((2S,5R,6R)-2-allyl-6-(3-chlorophenyl)-5-(4-chlorophenyl)-3-oxomorpholino)butyl)-N-(pyridin-2-yl)cyclopropanesulfonamide or N-((S)-2-((2R,5R,6R)-2-allyl-6-(3-chlorophenyl)-5-(4-chlorophenyl)-3-oxomorpholino)butyl)-N-(pyridin-2-yl)cyclopropanesulfonamide]
Second: O=C(O)C[C@H]1O[C@H](c2cccc(Cl)c2)[C@@H](c2ccc(Cl)cc2)N([C@H](CN(c2ncccc2F)S(=O)(=O)C2CC2)C2CC2)C1=O (single isomer, unassigned) [Example 189, 2-((2R,5R,6R)-6-(3-chlorophenyl)-5-(4-chlorophenyl)-4-((S)-1-cyclopropyl-2-(N-(3-fluoropyridin-2-yl)cyclopropanesulfonamido)ethyl)-3-oxomorpholin-2-yl)acetic acid or 2-((2S,5R,6R)-6-(3-chlorophenyl)-5-(4-chlorophenyl)-4-((S)-1-cyclopropyl-2-(N-(3-fluoropyridin-2-yl)cyclopropanesulfonamido)ethyl)-3-oxomorpholin-2-yl)acetic acid]
The IC50 of the first is higher: 141 nM for the first, < 1 nM for the second.

`CC[C@@H](CS(=O)(=O)C(C)(C)C)N1C(=O)[C@@H](CC(=O)O)O[C@H](c2cccc(Cl)c2)[C@H]1c1ccc(Cl)c(F)c1` (single isomer, unassigned) [Example 182, 2-((2R,5R,6R)-4-((S)-1-(tert-butylsulfonyl)butan-2-yl)-5-(4-chloro-3-fluorophenyl)-6-(3-chlorophenyl)-3-oxomorpholin-2-yl)acetic acid or 2-((2S,5R,6R)-4-((S)-1-(tert-butylsulfonyl)butan-2-yl)-5-(4-chloro-3-fluorophenyl)-6-(3-chlorophenyl)-3-oxomorpholin-2-yl)acetic acid] and `CC[C@@H](CS(=O)(=O)CC1CC1)N1C(=O)[C@@H](CC(=O)O)O[C@H](c2cccc(Cl)c2)[C@H]1c1ccc(Cl)cc1` (single isomer, unassigned) [Example 190, 2-((2R,5R,6R)-6-(3-chlorophenyl)-5-(4-chlorophenyl)-4-((S)-1-((cyclopropylmethyl)sulfonyl)butan-2-yl)-3-oxomorpholin-2-yl)acetic acid or 2-((2S,5R,6R)-6-(3-chlorophenyl)-5-(4-chlorophenyl)-4-((S)-1-((cyclopropylmethyl)sulfonyl)butan-2-yl)-3-oxomorpholin-2-yl)acetic acid] are within 1.5-fold of each other in IC50: 4 nM for the first, 3 nM for the second.

Compared with `CC[C@@H](CS(=O)(=O)C(C)(C)C)N1C(=O)[C@@H](CC(=O)O)O[C@H](c2cccc(Cl)c2)[C@H]1c1ccc(Cl)c(F)c1` (single isomer, unassigned) [Example 183, 2-((2R,5R,6R)-4-((S)-1-(tert-butylsulfonyl)butan-2-yl)-5-(4-chloro-3-fluorophenyl)-6-(3-chlorophenyl)-3-oxomorpholin-2-yl)acetic acid or 2-((2S,5R,6R)-4-((S)-1-(tert-butylsulfonyl)butan-2-yl)-5-(4-chloro-3-fluorophenyl)-6-(3-chlorophenyl)-3-oxomorpholin-2-yl)acetic acid], `CC[C@@H](CS(=O)(=O)CC1CC1)N1C(=O)[C@@H](CC(=O)O)O[C@H](c2cccc(Cl)c2)[C@H]1c1ccc(Cl)cc1` (single isomer, unassigned) [Example 191, 2-((2R,5R,6R)-6-(3-chlorophenyl)-5-(4-chlorophenyl)-4-((S)-1-((cyclopropylmethyl)sulfonyl)butan-2-yl)-3-oxomorpholin-2-yl)acetic acid or 2-((2S,5R,6R)-6-(3-chlorophenyl)-5-(4-chlorophenyl)-4-((S)-1-((cyclopropylmethyl)sulfonyl)butan-2-yl)-3-oxomorpholin-2-yl)acetic acid] is 36-fold lower in IC50: 178 nM for the first, 5 nM for the second.

In the case of `CC[C@@H](CS(=O)(=O)C1CCOCC1)N1C(=O)[C@@H](CC(=O)O)O[C@H](c2cccc(Cl)c2)[C@H]1c1ccc(Cl)cc1` (single isomer, unassigned) [Example 186, 2-((2R,5R,6R)-6-(3-chlorophenyl)-5-(4-chlorophenyl)-3-oxo-4-((S)-1-((tetrahydro-2H-pyran-4-yl)sulfonyl)butan-2-yl)morpholin-2-yl)acetic acid or 2-((2S,5R,6R)-6-(3-chlorophenyl)-5-(4-chlorophenyl)-3-oxo-4-((S)-1-((tetrahydro-2H-pyran-4-yl)sulfonyl)butan-2-yl)morpholin-2-yl)acetic acid], the IC50 is reported as 2 nM.
`CC[C@@H](CS(=O)(=O)C1CCOCC1)N1C(=O)[C@@H](CC(=O)O)O[C@H](c2cccc(Cl)c2)[C@H]1c1ccc(Cl)cc1` (single isomer, unassigned) [Example 187, 2-((2R,5R,6R)-6-(3-chlorophenyl)-5-(4-chlorophenyl)-3-oxo-4-((S)-1-((tetrahydro-2H-pyran-4-yl)sulfonyl)butan-2-yl)morpholin-2-yl)acetic acid or 2-((2S,5R,6R)-6-(3-chlorophenyl)-5-(4-chlorophenyl)-3-oxo-4-((S)-1-((tetrahydro-2H-pyran-4-yl)sulfonyl)butan-2-yl)morpholin-2-yl)acetic acid] gave an IC50 of 2 nM.
